Converted amounts (≈) assume the structure as drawn. Like-named read-outs stand apart in the source and are kept apart here.

A short description of one data set: DPPH assay. The conditions noted are these: DPPH radical scavenging; 40 min, room temperature. On the procedure: The DPPH assay was performed spectrophotometrically. The amount of 30 µL of different concentrations of samples, dissolved in methanol/DMSO (9/1 v/v), was mixed with 170 µL of 0.06 mM DPPH methanolic solution and completed with methanol to a final volume of 300 µL. DPPH methanolic solution with methanol/DMSO (9/1 v/v) was used as a control. After 40 min of incubation at room temperature in the dark, the absorbance was analyzed at λ = 510 nm by a 96-well microplate reader (Epoch, BioTek System, Santa Clara, CA, USA). Ascorbic acid was used as a standard.
DPPH inhibition was calculated by the following equation:DPPH Inhibition (%) = [Acontrol − Asample)/Acontrol] × 100%
(§1) IC50 values of the samples were calculated using program GraFit v. 7.0 (Erithacus Software). The analysis was performed three times, with tree replications in each (n = 9). Statistical analysis was performed with one-way ANOVA with Tuckey’s post-hoc test.

Another data set can be described thus: ABTS assay. The note with it: ABTS radical scavenging; 10 min, 30 °C. On the procedure: The ABTS assay was performed spectrophotometrically. […] ABTS solution with methanol/DMSO (9/1 v/v) was used as a control. After 10 min of incubation at 30 °C in the dark, the absorbance was analyzed at λ = 750 nm by a 96-well microplate reader (Epoch, BioTek System, Santa Clara, CA, USA). Ascorbic acid was used as a standard.
ABTS inhibition was calculated by the following equation:ABTS Inhibition (%) = [Acontrol − Asample)/Acontrol] × 100%
as §1

Data set [1] has as its system quorum sensing system of C. violaceum. On the set-up: method as in doi:10.1016/j.ibiod.2018.06.003. The conditions noted are these: cited from earlier work.
The subject of data set [2] is S. aureus ATCC 6538. The data set can be described thus: MIC determination, reference strain (microdilution). The data set is classed as cell-based. The note with it: Staphylococcus aureus, ATCC6538.
Data set [3] relates to S. epidermidis ATCC 14990. The data set is described as above. The data set is classed as cell-based. The note with it: Staphylococcus epidermidis, ATCC14990.
A further data set relates to E. hirae ATCC 10541. Described as above. The note with it: Enterococcus hirae, ATCC10541. The data set is classed as cell-based.
The next data set has as its system E. faecalis ATCC 51299. The data set is described as above. The note with it: Enterococcus faecalis, ATCC51299. It counts as cell-based.
In the next data set the test system is B. subtilis ATCC 6633. Described as above. It counts as cell-based. The note with it: Bacillus subtilis, ATCC6633.
A further data set deals with C. diphtheriae. The description is as above. It counts as cell-based. The conditions noted are these: Corynebacterium diphtheriae.
A further data set relates to C. albicans ATCC 10231. The data set can be described thus: MIC determination, reference fungal strain (microdilution). It counts as cell-based. The conditions noted are these: Candida albicans, ATCC10231.
In another data set the test system is E. coli ATCC 8739. As to the kind of experiment: MIC determination, reference strain (microdilution). The note with it: Escherichia coli, ATCC8739. It counts as cell-based.
For data set [4], the system named is S. aureus ATCC 6538. The data set can be described thus: Blood bacteriostatic activity test in sheep blood. The data set is classed as cell-based, Staphylococcus aureus. The conditions noted are these: 24 h, 37 °C, t0 1.30 × 10^8, control t24 2.28 × 10^9. On the procedure: (§2) The manifestation of the bactericidal properties of chemical compounds is low minimum bactericidal concentration (MBC) values, which allows many groups of researchers to check the killing rate over time (time killing tests). It is an important element in determining the strength and speed of action of a compound on bacteria. Such studies are usually carried out in bacterial media, without additional factors influencing the results.
(§3) This step was carried out on two types of bacteria, S. aureus ATCC 6538 (Figure 8 and Table 2) and S. epidermidis ATCC 14 990 (Figure 9 and Table 3).
(§4) The number of bacteria at the initial time (t0) was 1.30 × 10^8 CFU/mL for S. aureus and 1.70 × 10^7 CFU/mL for S. epidermidis. Live bacterial cells were assayed after 24 h of incubation at 37 °C. […] Bacterial controls without compounds grew unhindered and after 24 h (t24) were 2.28 × 10^9 for S. aureus and 5.10 × 10^8 CFU/mL for S. epidermidis. […] It can be assumed that the tested compounds were not related to any fraction of the blood. Attention should be paid to the S. epidermidis tests and the difference between the number of bacteria at t0 and after 24 h of incubation for each compound. The number of bacteria at t0 was 1.70 × 10^7 CFU/mL and after 24 h it decreased to, e.g., 9.40 × 10^6 CFU/mL for compounds 16e and 7.80 × 10^6 CFU/mL for compound 17c. It can be assumed that the tested compounds after being added to blood samples prevented bacteria from multiplying. However, under these conditions, the phagocytic cells take up the bacteria. […] This can be explained by much greater variety of mechanisms of action of S. aureus against phagocytic cells than of S. epidermidis. This can be integrated with the bacterial cell compounds, e.g., protein A, as well as enzymes that bacteria can secrete outside the cell, e.g., coagulase and staphylokinase. Additional studies should be conducted to check how the tested compounds affect the enzymes secreted by S. aureus.
(§5) The assay was performed as previously described by with a modification. Pure sheep blood was used for the research. Two strains of bacteria S. aureus ATCC 6538 and S. epidermidis ATCC 14990 were used with an inoculum density of approximately 10^8 CFU/mL at 0 time. The final concentration of the compounds was 0.5, 1, 2, 4, and 8 µg/mL, and the final volume of the assay tube was 1 mL. Bacterial survivors were determined on MH agar plates (CFU/mL) at 24 h after exposure.

In data set [5] the test system is S. epidermidis ATCC 14990. The data set can be described thus: Blood bacteriostatic activity test in sheep blood. It counts as cell-based, Staphylococcus epidermidis. The note with it: 24 h, 37 °C, t0 1.70 × 10^7, control t24 5.10 × 10^8. On the procedure: as §2, §3, §4, §5
A further data set relates to HeLa cells. As to the kind of experiment: MTT assay. The data set is classed as cell-based, human. The conditions noted are these: Homo sapiens, HeLa, 24 h.
The next data set deals with SKOV-3 cells. The data set can be described thus: MTT assay. The note with it: Homo sapiens. The data set is classed as cell-based, human.
Another data set deals with MCF-7 cells. The data set can be described thus: MTT assay. The data set is classed as cell-based, human. The conditions noted are these: Homo sapiens.
The test system of the next data set is HEK-293 cells. As to the kind of experiment: MTT assay, noncancerous cells. It counts as cell-based. The note with it: Homo sapiens, HEK293, 24 h.
A short description of a further data set: in vitro. The conditions noted are these: sheep, pH 7.

For `O=C1O[C@H]([C@@H](O)CO)C(O)=C1O` [Ascorbic acid, ascorbic acid, reference compound], the “IC50 DPPH” value in “DPPH assay” is 10.78 ± 0.11 µg/mL (≈ 61.2 µM). The “IC50 ABTS” value in the data set “ABTS assay” is listed as 18.99 ± 0.03 µg/mL (≈ 108 µM).

For the molecule `NC(=O)C=Cc1ccccc1` [cinnamamide], the Quorum sensing inhibition entry in data set [1] (at 5 mM) is given as “completely inhibit”.

`O=C(O)/C=C/c1ccccc1` [cinnamic acid]: in data set [1] (at 5 mM), the Quorum sensing inhibition entry is reported as “completely inhibit”.

As for `Cc1cc(S(=O)(=O)NC(=O)C=Cc2ccccc2)c(SCc2cccc3ccccc23)cc1Cl` [Compound 16a, N–[4–Chloro–5–methyl–2–(naphthalen–1–ylmethylthio)benzenesulfonyl]cinnamamide], the MIC amounted to 1 ± 0.29 µg/mL (≈ 1.97 µM) against S. aureus ATCC 6538 [2]; 2 ± 0.58 µg/mL (≈ 3.94 µM) in [3]; 4 ± 0.15 µg/mL (≈ 7.87 µM) in the data set with E. hirae ATCC 10541; 2 ± 0.58 µg/mL (≈ 3.94 µM) in the data set with E. faecalis ATCC 51299; 62.5 ± 0.29 µg/mL (≈ 123 µM) against B. subtilis ATCC 6633; 62.5 ± 0.29 µg/mL (≈ 123 µM) against C. diphtheriae. In addition, the MIC in the data set with C. albicans ATCC 10231 and in the data set on E. coli ATCC 8739 was above 125 µg/mL each time. In addition, the “Number of viable cells of Staphylococcus aureus” value in the data set with S. aureus ATCC 6538 [4] (1 µg/mL) is on record as 1.23 × 10^8 CFU/mL; in the data set with S. aureus ATCC 6538 [4] (2 µg/mL), 7.50 × 10^8 CFU/mL; in the data set with S. aureus ATCC 6538 [4] (4 µg/mL), 8.10 × 10^8 CFU/mL; with S. aureus ATCC 6538 [4] (8 µg/mL), 1.29 × 10^8 CFU/mL. The “Number of viable cells of Staphylococcus epidermidis” value in [5] (1 µg/mL) is listed as 3.00 × 10^6 CFU/mL; in data set [5] (2 µg/mL) it was 4.00 × 10^6 CFU/mL; in data set [5] (4 µg/mL), 1.10 × 10^6 CFU/mL; in [5] (8 µg/mL), 2.50 × 10^6 CFU/mL. Moreover, the half-maximal inhibitory concentration (IC50) in the data set with HeLa cells is 13.7 ± 1.12 µg/mL (≈ 27 µM); in the data set on SKOV-3 cells (SK-OV-3, 24 h), 11.8 ± 0.8 µg/mL (≈ 23.3 µM); in the data set with MCF-7 cells (MCF7, 24 h) it was 14.3 ± 0.28 µg/mL (≈ 28.2 µM); in the data set with HEK-293 cells it was 13.6 ± 0.19 µg/mL (≈ 26.7 µM). For the same molecule, in “DPPH assay”, the “IC50 DPPH” value was 1048.33 ± 0.48 µg/mL (≈ 2060 µM). The “IC50 ABTS” value in “ABTS assay” is 717.99 ± 1.01 µg/mL (≈ 1410 µM). Moreover, the hemolysis at 24 h, 125 µg/mL in the data set “in vitro” was 43%.

In the case of `CC(=Cc1ccccc1)C(=O)O` [α–methylcinnamic acid], the Quorum sensing inhibition entry in data set [1] (at 5 mM) is reported as “completely inhibit”.

With `C=CCOC(=O)C=Cc1ccccc1` [allyl cinnamate], the Quorum sensing inhibition entry in [1] (at 1 mM) was “completely inhibit”.

Turning to `CC(=O)N1CCN(c2ccc(OCC3COC(Cn4ccnc4)(c4ccc(Cl)cc4Cl)O3)cc2)CC1` (stereo not shown) [Ketoconazole, reference compound], in the data set on C. albicans ATCC 10231 (C. albicans ATCC 10231, read-out: MIC), the minimum inhibitory concentration (MIC) is above 125 µg/mL.

As for `O=C(O)C=Cc1ccc2c(c1)OCO2` [3,4–(methylenedioxy)cinnamic acid], the Quorum sensing inhibition result in data set [1] (at 5 mM) is recorded as “completely inhibit”.

Regarding `OCC=Cc1ccccc1` [cinnamyl alcohol], the Quorum sensing inhibition entry in data set [1] (at 1 mM) was “completely inhibit”.

In the case of `CC[C@]1(O)C[C@@H]2CN(CCc3c([nH]c4ccccc34)[C@@](C(=O)OC)(c3cc4c(cc3OC)N(C)[C@H]3[C@@](O)(C(=O)OC)[C@H](OC(C)=O)[C@]5(CC)C=CCN6CC[C@]43[C@@H]65)C2)C1` [V. sulphate, Vinblastine sulphate, reference compound], the half-inhibitory concentration (IC50) in the data set on HeLa cells (MTT, 24 h treatment, read-out: IC50) stood at 0.005 ± 0.0004 µg/mL; in the data set with SKOV-3 cells (SK-OV-3, SKOV-3, MTT, 24 h treatment, read-out: IC50) it was 0.008 ± 0.0003 µg/mL; in the data set on MCF-7 cells (MCF7, MCF-7, MTT, 24 h treatment, read-out: IC50) it was 0.007 ± 0.0008 µg/mL.

For the molecule `O=C(O)C=Cc1ccc([N+](=O)[O-])cc1` [4–nitrocinnamic acid], the Quorum sensing inhibition entry in [1] (at 5 mM) is “completely inhibit”.

In the case of `O=C(O)C=Cc1ccc(Cl)cc1` [4–chlorocinnamic acid], the Quorum sensing inhibition entry in data set [1] (at 5 mM) is “completely inhibit”.

Source of the values: PMC10096175, “An In Vitro Antimicrobial, Anticancer and Antioxidant Activity of N–[(2–Arylmethylthio)phenylsulfonyl]cinnamamide Derivatives” (Molecules, 2023).
